Source: a compilation of properties of binary mixtures (doi:10.1021/jp502400z)

Test: xn = mol fraction of the nth substance listed
Conditions: 298.15 K, 101 kPa

O + CC(=O)[O-].CC[NH2+]CC
Conditions	speed of sound [m/s]
x1 = 1	1496

O + CC[NH2+]CC.O=S(=O)([O-])O
x1 = 1
Conditions	speed of sound [m/s]	viscosity [mPa·s]
–	1496	0.89

O + CC[NH+](CC)CC.O=S(=O)([O-])O
x1 = 1
Conditions	speed of sound [m/s]	viscosity [mPa·s]
–	1496	0.89

O + C[NH+](C)C.O=S(=O)([O-])O
x1 = 1
Conditions	speed of sound [m/s]	viscosity [mPa·s]
–	1496	0.89

CC(=O)[O-].CC[NH2+]CC + O
Conditions	speed of sound [m/s]
x2 = 0	1608
x2 = 0.0881	1602
x2 = 0.1637	1599
x2 = 0.2293	1598
x2 = 0.2866	1597
x2 = 0.3373	1596
x2 = 0.459	1594
x2 = 0.5741	1589
x2 = 0.6182	1585
x2 = 0.6562	1581
x2 = 0.7179	1572
x2 = 0.7433	1568
x2 = 0.8208	1551
x2 = 0.8735	1538
x2 = 0.8941	1532
x2 = 0.9197	1524
x2 = 0.9468	1516
x2 = 0.9634	1510

CC(=O)[O-].C[NH+](C)C + O
Conditions	speed of sound [m/s]	viscosity [mPa·s]
x1 = 0.0451	1499	1.199
x1 = 0.0651	1503	1.31
x1 = 0.0978	1504	1.5
x1 = 0.1283	1507	1.64
x1 = 0.1524	1510	1.75
x1 = 0.2133	1517	1.99
x1 = 0.3002	1525	2.24
x1 = 0.328	1527	2.31
x1 = 0.3943	1532	2.43
x1 = 0.4341	1534	2.48
x1 = 0.4797	1535	2.52
x1 = 0.5325	1537	2.56
x1 = 0.6292	1538	2.61
x1 = 0.7094	1539	2.62
x1 = 0.7556	1540	2.63
x1 = 0.9278	1542	2.69
x1 = 1	1544	2.76

CC[NH+](CC)CC.O=S(=O)([O-])O + O
Conditions	speed of sound [m/s]	viscosity [mPa·s]
x2 = 0	1874	235
x2 = 0.1228	1828	210
x2 = 0.2209	1819	195
x2 = 0.3679	1836	176
x2 = 0.4728	1844	162
x2 = 0.5147	1843	156
x2 = 0.6613	1795	129
x2 = 0.7011	1772	120
x2 = 0.7866	1702	95.2
x2 = 0.8075	1677	87.3
x2 = 0.869	1616	63.1
x2 = 0.9091	1581	48.8
x2 = 0.9432	1542	29.5
x2 = 0.9627	1526	19.9
x2 = 0.9743	1507	14.14

CC[NH2+]CC.O=S(=O)([O-])O + O
Conditions	speed of sound [m/s]	viscosity [mPa·s]
x2 = 0.1212	1426	30.4
x2 = 0.2183	1429	29.6
x2 = 0.2979	1433	30.1
x2 = 0.3644	1436	31
x2 = 0.4207	1437	31.3
x2 = 0.5476	1443	32.3
x2 = 0.6578	1441	31.4
x2 = 0.6979	1440	30.2
x2 = 0.7314	1439	28.8
x2 = 0.7841	1437	26
x2 = 0.8051	1438	24.6
x2 = 0.8673	1439	19.3
x2 = 0.9079	1444	15.14
x2 = 0.9233	1448	13.51
x2 = 0.9424	1454	11.06
x2 = 0.9622	1461	8.48
x2 = 0.9741	1468	6.19

C[NH+](C)C.O=S(=O)([O-])O + O
Conditions	speed of sound [m/s]	viscosity [mPa·s]
x2 = 0	1564	5.1
x2 = 0.1369	1553	4.86
x2 = 0.1942	1555	4.74
x2 = 0.2919	1558	4.53
x2 = 0.3723	1562	4.34
x2 = 0.4691	1565	4.05
x2 = 0.5219	1564	3.88
x2 = 0.6073	1556	3.54
x2 = 0.6734	1541	3.22
x2 = 0.7012	1531	3.08
x2 = 0.7878	1502	2.58
x2 = 0.8724	1472	2.01
x2 = 0.9027	1470	1.76
x2 = 0.9352	1466	1.49
